Four molecules from patent US20250195504A1, “NALTREXAMINE DERIVATIVES BEARING 5-MEMBER HETEROCYCLIC RING SYSTEMS AND OPIOID RECEPTOR MODULATORS” (VIRGINIA COMMONWEALTH UNIVERSITY, priority 2022, published 2025) can be followed below.

For one data set, the target named is T1, DOR (Homo sapiens, UniProt P41143).
T1 construct: expressed in transfected cells; host or cells: CHO
Description: DOR [35S]GTPγS binding assay. It is filed as biochemical. Conditions: Tables A, B. Here is the method:
(§1) The [^35S]GTPγS functional assay was conducted to determine the efficacy of the compounds at the MOR, KOR and DOR. […] The Bradford protein assay was utilized to determine and adjust the concentration of protein required for the assay. Nonspecific binding was determined with 20 μM unlabeled GTPγS. Furthermore, 3 μM DAMGO/U50488H/SNC80 was included in the assay as the maximally effective concentration of a full agonist for the MOR/KOR/DOR. After incubation, the bound radioactive ligand was separated from the free radioligand by filtration through a GF/B glass fiber filter paper using a Brandel harvester. Bound radioactivity was determined by liquid scintillation counting. All assays were determined in duplicate and repeated at least three times. Net stimulated [^35S]GTPγS binding was defined as agonist-stimulated minus basal binding in the absence of agonist. Percent of DAMGO/U50488H/SNC80 stimulated [^35S]GTPγS binding was defined as (net-stimulated binding by ligand/net-stimulated binding by 3 μM DAMGO U50488H/SNC80)×100%.

The next data set has as its target T2, hM2 (Homo sapiens, UniProt P08172).
T2 sequence (P08172 1-466): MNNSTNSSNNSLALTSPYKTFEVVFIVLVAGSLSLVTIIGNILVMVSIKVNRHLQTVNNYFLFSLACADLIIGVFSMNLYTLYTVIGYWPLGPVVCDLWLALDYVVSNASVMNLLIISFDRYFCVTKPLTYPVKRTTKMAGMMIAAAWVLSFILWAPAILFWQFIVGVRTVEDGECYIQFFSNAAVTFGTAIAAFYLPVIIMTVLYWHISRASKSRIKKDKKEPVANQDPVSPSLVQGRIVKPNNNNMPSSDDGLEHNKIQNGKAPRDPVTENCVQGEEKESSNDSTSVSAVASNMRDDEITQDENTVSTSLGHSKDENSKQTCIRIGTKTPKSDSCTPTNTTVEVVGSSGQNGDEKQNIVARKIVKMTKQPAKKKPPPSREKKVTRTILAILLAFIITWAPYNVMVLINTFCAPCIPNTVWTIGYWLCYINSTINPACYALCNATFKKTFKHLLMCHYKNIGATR
Description: side effect profiling, hM2. It is filed as binding. Conditions: for hM2 binding: at 10 uM.

The target in a further data set is hERG channel (Homo sapiens, UniProt Q12809). Description: hERG channel testing. A general note: Block of hERG is tested as a sign of cardiac risk.
Sequence of hERG channel (Q12809 whole entry): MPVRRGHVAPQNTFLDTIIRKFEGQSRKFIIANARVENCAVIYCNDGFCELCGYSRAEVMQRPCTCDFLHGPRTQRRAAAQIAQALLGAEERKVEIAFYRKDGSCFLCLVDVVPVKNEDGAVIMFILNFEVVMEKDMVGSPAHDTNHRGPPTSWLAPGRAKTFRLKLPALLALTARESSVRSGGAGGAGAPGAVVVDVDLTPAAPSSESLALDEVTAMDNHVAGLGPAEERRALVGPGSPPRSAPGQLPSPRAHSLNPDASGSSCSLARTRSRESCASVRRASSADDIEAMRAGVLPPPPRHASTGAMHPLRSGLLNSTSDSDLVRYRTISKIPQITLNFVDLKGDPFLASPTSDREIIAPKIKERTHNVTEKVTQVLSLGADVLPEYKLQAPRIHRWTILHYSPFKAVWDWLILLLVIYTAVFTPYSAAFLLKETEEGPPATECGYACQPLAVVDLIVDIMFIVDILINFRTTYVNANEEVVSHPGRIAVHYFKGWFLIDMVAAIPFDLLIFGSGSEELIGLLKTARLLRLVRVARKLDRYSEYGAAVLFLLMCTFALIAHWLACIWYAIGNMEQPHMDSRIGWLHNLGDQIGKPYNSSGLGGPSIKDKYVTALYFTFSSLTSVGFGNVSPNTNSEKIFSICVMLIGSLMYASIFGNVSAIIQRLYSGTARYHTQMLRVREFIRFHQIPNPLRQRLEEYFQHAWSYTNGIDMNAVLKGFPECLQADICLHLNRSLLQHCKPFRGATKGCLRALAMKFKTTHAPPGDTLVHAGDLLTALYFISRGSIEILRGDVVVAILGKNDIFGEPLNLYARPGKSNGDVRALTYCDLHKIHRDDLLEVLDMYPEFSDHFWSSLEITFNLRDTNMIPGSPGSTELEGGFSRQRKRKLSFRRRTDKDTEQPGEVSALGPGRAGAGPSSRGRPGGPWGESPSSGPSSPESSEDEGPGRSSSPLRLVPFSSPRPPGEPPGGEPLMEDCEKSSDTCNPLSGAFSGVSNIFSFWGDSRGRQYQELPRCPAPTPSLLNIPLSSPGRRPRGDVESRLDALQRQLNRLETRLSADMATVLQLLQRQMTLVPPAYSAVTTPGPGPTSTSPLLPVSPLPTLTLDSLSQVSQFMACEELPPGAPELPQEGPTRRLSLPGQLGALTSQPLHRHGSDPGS
In another data set the target is CYP2D6 (Homo sapiens, UniProt P10635). Description: CYP450 enzyme testing, CYP2D6.
Sequence of CYP2D6 (P10635 whole entry): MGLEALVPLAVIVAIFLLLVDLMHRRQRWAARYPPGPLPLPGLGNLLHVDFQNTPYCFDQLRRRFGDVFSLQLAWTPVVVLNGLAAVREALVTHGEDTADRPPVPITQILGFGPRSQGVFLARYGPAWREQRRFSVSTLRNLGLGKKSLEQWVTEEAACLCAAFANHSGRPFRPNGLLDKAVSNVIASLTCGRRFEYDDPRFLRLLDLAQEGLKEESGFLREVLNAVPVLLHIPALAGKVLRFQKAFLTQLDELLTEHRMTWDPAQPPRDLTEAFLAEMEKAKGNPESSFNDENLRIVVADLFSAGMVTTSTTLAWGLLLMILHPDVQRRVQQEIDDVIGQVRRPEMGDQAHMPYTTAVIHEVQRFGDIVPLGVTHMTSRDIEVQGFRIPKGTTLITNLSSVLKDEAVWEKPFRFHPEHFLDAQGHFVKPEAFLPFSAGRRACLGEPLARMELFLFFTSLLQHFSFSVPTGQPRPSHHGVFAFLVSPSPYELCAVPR
Data set [1] can be described thus: In vivo Bioavailability Foral. Conditions: po.
The nature of data set [2]: Protein Binding (plasma), human.
Data set [3] is described as follows: Metabolic Stability (half-life), rat.
Data set [4] can be described thus: Metabolic Stability (half-life), human.
The target of the next data set is MOR (Mus musculus, UniProt P42866). Description: MOR [35S]GTPγS functional assay (MOR-CHO membranes). The class given is biochemical. The arrangement: expressed in transfected cells; host or cells: CHO. Conditions: Tables A, B. Here is the method:
The [^35S]GTPγS functional assay was conducted to determine the efficacy of the compounds at the MOR. […] The Bradford protein assay was utilized to determine and adjust the concentration of protein required for the assay. Nonspecific binding was determined with 20 μM unlabeled GTPγS. Furthermore, 3 μM DAMGO was included in the assay as the maximally effective concentration of a full agonist for the MOR. After incubation, the bound radioactive ligand was separated from the free radioligand by filtration through a GF/B glass fiber filter paper and rinsed three times with ice-cold wash buffer (50 mM Tris-HCl, pH 7.2) using the Brandel harvester. Bound radioactivity was determined by liquid scintillation counting. All assays were determined in duplicate and repeated at least three times. Net stimulated [^35S]GTPγS binding was defined as agonist-stimulated minus basal binding in the absence of agonist. Percent of DAMGO-stimulated [^35S]GTPγS binding was defined as (net-stimulated binding by ligand/net-stimulated binding by 3 μM DAMGO)×100%.
Results were reported as mean values ±SEM.
as §1, with “The [^35S]-GTPγS binding assay was carried out as well to determine the functionality on the MOR of each compound. […] The [^35S]GTPγS” for “The [^35S]GTPγS”
Background: Binding of GTPγS marks nucleotide exchange on a G protein.

The next data set addresses T3, MOR-CHO cells (Mus musculus, UniProt P42866).
T3 construct: expressed in transfected cells; host or cells: CHO
Description: Calcium flux on MOR-CHO cells, acting as antagonists against DAMGO. It is filed as cell-based.

Another data set addresses T4, hM4 (Homo sapiens, UniProt P08173).
T4 sequence (P08173 1-479): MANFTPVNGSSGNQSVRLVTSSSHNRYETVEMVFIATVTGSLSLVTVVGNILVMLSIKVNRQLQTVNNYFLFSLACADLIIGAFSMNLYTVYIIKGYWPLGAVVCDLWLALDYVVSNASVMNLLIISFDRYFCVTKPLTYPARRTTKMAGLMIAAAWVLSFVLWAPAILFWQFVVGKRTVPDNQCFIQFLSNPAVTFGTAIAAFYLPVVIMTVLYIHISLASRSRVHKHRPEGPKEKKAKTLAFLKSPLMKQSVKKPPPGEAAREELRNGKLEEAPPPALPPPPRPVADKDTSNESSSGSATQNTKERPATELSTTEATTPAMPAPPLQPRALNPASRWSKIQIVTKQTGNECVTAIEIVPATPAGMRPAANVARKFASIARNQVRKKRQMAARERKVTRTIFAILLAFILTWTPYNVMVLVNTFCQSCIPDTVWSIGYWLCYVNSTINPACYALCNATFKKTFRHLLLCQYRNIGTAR
Description: side effect profiling, hM4. The class given is binding. Conditions: for hM4 binding: at 10 uM.

Another data set in a line: solubility. Conditions: Tables A, B.

Structures can show the parent of a compound that is named as a salt. Where two headings read alike, the source gives them in different places.

The term Ki denotes the dissociation constant of the complex between target and ligand, obtained from inhibition or displacement. Read a low Ki as higher affinity. A word on the bioavailability: it is the share of a dose that reaches the circulation, judged against a reference dose that is usually intravenous. What is called fraction unbound is free concentration divided by total concentration. What is called half-life is the time needed for the level to fall by half in the phase considered. Lower therefore signals rapid decline. A word on the IC50: it is the concentration that gives 50% inhibition. As a reminder, the EC50 is the concentration at which the effect is half-maximal.

T1 sequence (P41143 whole entry): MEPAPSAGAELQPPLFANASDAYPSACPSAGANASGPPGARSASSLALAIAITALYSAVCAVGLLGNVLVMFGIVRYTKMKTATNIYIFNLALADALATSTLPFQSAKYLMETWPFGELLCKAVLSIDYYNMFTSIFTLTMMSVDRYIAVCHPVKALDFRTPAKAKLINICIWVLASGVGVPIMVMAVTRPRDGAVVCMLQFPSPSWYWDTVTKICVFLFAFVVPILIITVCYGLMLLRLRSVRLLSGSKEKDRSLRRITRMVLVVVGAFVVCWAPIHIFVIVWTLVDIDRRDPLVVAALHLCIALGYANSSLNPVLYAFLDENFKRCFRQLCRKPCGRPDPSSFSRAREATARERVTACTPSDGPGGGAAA
Sequence of MOR (P42866 whole entry): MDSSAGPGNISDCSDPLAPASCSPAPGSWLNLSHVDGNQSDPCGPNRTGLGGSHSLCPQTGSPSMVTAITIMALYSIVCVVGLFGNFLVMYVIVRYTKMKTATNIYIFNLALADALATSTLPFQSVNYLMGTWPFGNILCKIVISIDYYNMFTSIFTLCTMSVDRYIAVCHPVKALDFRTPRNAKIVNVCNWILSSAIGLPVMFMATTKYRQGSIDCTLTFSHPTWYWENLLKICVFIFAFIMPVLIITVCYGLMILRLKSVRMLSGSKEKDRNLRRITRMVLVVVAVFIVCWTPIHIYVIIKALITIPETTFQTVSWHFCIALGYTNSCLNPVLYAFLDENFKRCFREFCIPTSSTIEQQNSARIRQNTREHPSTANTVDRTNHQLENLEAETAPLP
T3 sequence (P42866 whole entry): as above

On to `O=C(N[C@H]1CCC2(O)C3Cc4ccc(O)c5c4[C@@]2(CCN3CC2CC2)[C@H]1O5)c1ccc[nH]1` (stereo partly drawn) [Example 1 compound 1, 17-Cyclopropylmethyl-3,14β-dihydroxy-4,5α-epoxy-6a-[(2′-pyrrolyl)carboxamido]morphinan hydrochloride], for which, at DOR, the “35S-GTP[γS]-Binding DOR Efficacy (% max of SNC80)” value was found to be 50.94 ± 5.26%. Also, the Ki on hM2 was 7280 nM. The same molecule registered a hM2 binding at hM2 of 58%. Besides, on hERG channel, the “hERG channel testing (Eurofins)” value is 2.6 µM. Further, the “hERG channel testing (NIH)” value at hERG channel (NIH) is 12.5 µM. Besides, at CYP2D6 (human), the “CYP2D6 inhibition (in words)” value is “Only moderate at CYP2D6 and CYP2C19”. This molecule also displayed a bioavailability in [1] of 59%. This molecule registered a free fraction (fraction unbound) in data set [2] of 0.43. Also, the half-life in [3] and in data set [4] was more than 1 h each time. At MOR, the “35S-GTP[γS]-Binding MOR Efficacy (% max of DAMGO)” value worked out at 12.11 ± 2.64%.
For `O=C(N[C@H]1CC[C@@]2(O)[C@H]3Cc4ccc(O)c5c4[C@@]2(CCN3CC2CC2)[C@H]1O5)c1cccs1` [Example 1 compound 25, 17-Cyclopropylmethyl-3,14β-dihydroxy-4,5α-epoxy-6α-(2′-thienylcarboxamido)morphinan hydrochloride], on DOR, the “35S-GTP[γS]-Binding DOR Efficacy (% max of SNC80)” value is 48.58 ± 3.41%. Also, the IC50 at MOR-CHO cells was 26.7 nM. On hM2, this molecule gave an inhibition constant Ki of 1900 nM and a hM2 binding of 81%. At hM4, this molecule registered a Ki of 4900 nM and a hM4 binding of 61%. In “solubility”, the Solubility entry was “Solubility: DMSO, H2O”. Besides, the “hERG channel testing (Eurofins)” value at hERG channel is 2.5 µM (Eurofins). In [1], this molecule yielded a bioavailability of 19%. Also, in data set [2], the fraction unbound is 0.63. In addition, the half-life in data set [3] was more than 1 h. For the same molecule, in data set [4], the half-life is more than 1 h. At MOR (35S-GTP[γS]-Binding MOR Potency EC50, nM), a half-maximal response (EC50) required 0.49 ± 0.09 nM. The “35S-GTP[γS]-Binding MOR Efficacy (% max of DAMGO)” value on MOR was found to be 21.81 ± 6.17%.
For `O=C(N[C@H]1CC[C@@]2(O)[C@H]3Cc4ccc(O)c5c4[C@@]2(CCN3CC2CC2)[C@H]1O5)c1ccsc1` [Example 1 compound 31, 17-Cyclopropylmethyl-3,14β-dihydroxy-4,5α-epoxy-6α-(3′-thienylcarboxamido)morphinan hydrochloride], the “35S-GTP[γS]-Binding DOR Efficacy (% max of SNC80)” value on DOR stood at 58.5 ± 3.13%. Also, on MOR-CHO cells, the 50% inhibitory concentration (IC50) worked out at 28.9 nM. At hM2, the hM2 binding entry is given as “hM2 (82% at 10 uM)”. Further, the hM4 binding entry on hM4 is “hM4 (65% at 10 uM)”. The Solubility result in “solubility” is listed as “Solubility: DMSO, H2O”. Besides, the “hERG channel testing (Eurofins)” value at hERG channel was 1.3 µM (Eurofins). Further, the “CYP2D6 inhibition (in words)” value at CYP2D6 was “Only moderate at CYP2D6 and CYP2C19”. Moreover, the bioavailability in data set [1] is 15%. Further, in [2], the fraction unbound was found to be 0.4. For the same molecule, the half-life in [3] was 0.733 h; in data set [4], more than 1 h. The “35S-GTP[γS]-Binding MOR Efficacy (% max of DAMGO)” value on MOR was 30.66 ± 4.44%.
Consider `O=C(N[C@H]1CC[C@@]2(O)[C@H]3Cc4ccc(O)c5c4[C@@]2(CCN3CC2CC2)[C@H]1O5)c1nccs1` [NTZ, 17-Cyclopropylmethyl-3,14β-dihydroxy-4,5α-epoxy-6α-(2′-thiazolylcarboxamido)morphinan hydrochloride], for which the “35S-GTP[γS]-Binding DOR Efficacy (% max of SNC80)” value at DOR came out at 46.51 ± 2.17%. The concentration giving a half-maximal response (EC50) on DOR (read-out: 35S-GTP[γS]-Binding DOR Potency EC50) stood at 23.6 ± 4.29 nM; on MOR (read-out: 35S-GTP[γS]-Binding MOR Potency EC50), 2.16 ± 0.38 nM. At hM2, the hM2 binding result is recorded as “hM2 (88% at 10 uM)”. In addition, the hM4 binding result on hM4 was “hM4 (67% at 10 uM)”. Besides, the Solubility result in “solubility” is listed as “Solubility: DMSO, H2O”. Moreover, the “hERG channel testing (Eurofins)” value at hERG channel was 7.4 µM (Eurofins). In addition, the “CYP2D6 inhibition (in words)” value at CYP2D6 (human) is “potent at CYP2D6 inhibition”. The same molecule registered a fraction unbound in [2] of 0.56. The half-life in data set [3] and in [4] was more than 1 h each time. Moreover, the “35S-GTP[γS]-Binding MOR Efficacy (% max of DAMGO)” value at MOR was determined as 11.29 ± 1.30%.
